Experimental data taken from US20240301494A1, “IDENTIFICATION AND TREATMENT OF PATIENTS WITH EPILEPSY” (GW Research Limited, priority 2020, published 2024).

Tests used:
Type in all cases: in vivo, human
[1] = system: patients with treatment-resistant epilepsy (TRE); assay: CBD response (percent change in seizure frequency) in open-label Expanded Access Program; conditions: for Maintenance seizure frequency, Mean ± SD: per 28 days; for Percent change seizure frequency, Mean ± SD: vs baseline
Text: (§1) All patients (or caregivers) were instructed to keep seizure diaries, which were verified during in-person visits. At each clinic visit, data on concomitant AEDs, CBD maintenance dose (mg/kg/day), seizure frequencies, and adverse events were collected.

[2] = system: patients with treatment-resistant epilepsy (TRE); assay: Single-marker association of genetic variants (DMET plus array) with CBD response, logistic regression
Protocol: (§2) Baseline data collection included demographics, seizure frequencies/severity, concomitant AEDs, and laboratory data.
(§3) CLIA-certified genotyping on the Affymetrix Drug Metabolizing Enzymes and Transporters (DMET) plus array was performed through the Coriell Institute for Medical Research (Camden, NJ) in two batches, with nine samples re-genotyped due to low call rates. The DMET plus array interrogates 1,936 markers (1,931 variants and 5 copy number regions) across ˜230 drug-related genes. Affymetrix DMET Console software® (version 1.3) was used to generate genotype profiles. Of the 1,931 variants, 1,328 were removed due to location on the X-chromosome or a minor allele frequency <0.05.
Hardy-Weinberg equilibrium was evaluated, and variants p<0.0001 were further evaluated by race. Variants in linkage disequilibrium (LD) were removed (n=212; r2=0.5), leaving 396 variants in the analyses.
Relationships between variants and CBD response/tolerability were tested under dominant (AA vs Ab+bb) and recessive (AA+Ab vs bb) models using logistic regression in PLINK. Treatment group (adult vs paediatric), race, and sex were included as covariates in all analyses.
(§4) A permutation approach was used to account for multiple testing (number of permutations: 1,000), since other methods (e.g. Bonferroni correction) assume independence between markers and likely be overly conservative.

[3] = system: patients with treatment-resistant epilepsy (TRE); assay: Single-marker association of genetic variants (DMET plus array) with CBD-related adverse effects, logistic regression
Protocol: as §2
as §3, with “profiles.” for “profiles. Of the 1,931 variants, 1,328 were removed due to location on the X-chromosome or a minor allele frequency <0.05.”
Hardy-Weinberg equilibrium was evaluated, and variants p<0.0001 were further evaluated by race.
Treatment group (adult vs paediatric), race, and sex were included as covariates in all analyses.
as §4

[4] = system: patients with treatment-resistant epilepsy (TRE); assay: Multivariable model of CBD response in treatment-resistant epilepsy
Protocol: Receiver operator curves (ROC) were generated and the area under the curve (AUC) was evaluated to compare clinical, genetic, and combined clinical+genetic models. Epistasis was evaluated in PLINK to identify potential interactions among variants included in the final response model.

[5] = system: patients with treatment-resistant epilepsy (TRE); assay: CBD tolerability: adverse events (MedDRA) in open-label Expanded Access Program
Protocol: as §1
Adverse effects were classified according to the Medical Dictionary for Regulatory Activities (MedDRA, V17.1), and those that differed by response status (diarrhoea, sedation, and abnormal liver function tests (LFTs)) were evaluated in the genetic analyses.

**Q.** How did the “Therapeutic response (≥50% reduction), share of patients” value ([1]; 112 genotyped TRE patients) turn out when `C=C(C)[C@@H]1CCC(C)=C[C@H]1c1c(O)cc(CCCCC)cc1O` [CBD, cannabidiol] was run?
**A.** 56.3%

**Q.** What about the “Maintenance seizure frequency, Median” value ([1]; Non-Responders (N = 49)) of the same compound?
**A.** 14.73

**Q.** And the “Percent change seizure frequency, Median” value ([1]; Non-Responders (N = 49))?
**A.** −14.3%

**Q.** What about the “Maintenance seizure frequency, Mean ± SD” value ([1]; Non-Responders (N = 49)) of the same compound?
**A.** 108.52 ± 327.05

**Q.** And the “Percent change seizure frequency, Mean ± SD” value ([1]; Non-Responders (N = 49))?
**A.** 5.65 ± 59.13%

**Q.** And the “Maintenance seizure frequency, Median” value ([1]; Overall (N = 112))?
**A.** 7.76

**Q.** What about the “Percent change seizure frequency, Median” value ([1]; Overall (N = 112)) of the same compound?
**A.** −53.9%

**Q.** And the “Maintenance seizure frequency, Mean ± SD” value ([1]; Overall (N = 112))?
**A.** 58.54 ± 222.27

**Q.** And the “Percent change seizure frequency, Mean ± SD” value ([1]; Overall (N = 112))?
**A.** −42.08 ± 58.76%

**Q.** And the “Maintenance seizure frequency, Median” value ([1]; Responders (N = 63))?
**A.** 4.50

**Q.** What about the “Percent change seizure frequency, Median” value ([1]; Responders (N = 63)) of the same compound?
**A.** −82%

**Q.** And the “Maintenance seizure frequency, Mean ± SD” value ([1]; Responders (N = 63))?
**A.** 19.65 ± 46.09

**Q.** What about the “Percent change seizure frequency, Mean ± SD” value ([1]; Responders (N = 63)) of the same compound?
**A.** −79.20 ± 16.58%

**Q.** And the “Therapeutic response (≥50% reduction), number of patients” value ([1]; of 112 patients)?
**A.** 63

**Q.** And the “increased likelihood of response” value ([2]; AOX1 rs6729738, recessive)?
**A.** 6 fold

**Q.** What about the “increased odds of response” value ([2]; CHST11 rs903247) of the same compound?
**A.** 4 fold

**Q.** And the “decreased likelihood of response” value ([2]; GSTM5 rs2479390)?
**A.** 72%

**Q.** What about the “decreased likelihood of response” value ([2]; GSTP1 rs1695 (recessive)) of the same compound?
**A.** 87%

**Q.** What about the “increased likelihood of response” value ([2]; SULT1A2 rs1059491 (recessive)) of the same compound?
**A.** 17 fold

**Q.** What about the “increased odds of response” value ([2]; UGT2B4 rs1966151) of the same compound?
**A.** 4 fold

**Q.** What about the “association of variant with CBD-associated sedation” value ([3]; ABCB1 rs1045642) of the same compound?
**A.** decreased sedation

**Q.** And the “increased likelihood of abnormal LFTs” value ([3]; APOA2 rs5085, recessive)?
**A.** 6 fold

**Q.** And the “association of variant with CBD-associated sedation” value ([3]; COMT rs4680 recessive wild-type G alleles)?
**A.** decreased sedation

**Q.** What about the “increased likelihood of diarrhoea” value ([3]; CYP2A6 rs28399433) of the same compound?
**A.** 10 fold

**Q.** And the “association of variant with CBD-associated sedation” value ([3]; CYP2C19 rs3758581)?
**A.** decreased sedation

**Q.** And the “increased likelihood of diarrhoea” value ([3]; CYP39A1 rs7761731)?
**A.** ~9 fold

**Q.** What about the “increased likelihood of diarrhoea” value ([3]; FMO6 rs2272797) of the same compound?
**A.** ~5 fold

**Q.** And the “increased odds of abnormal LFTs” value ([3]; SLC22A2 rs316003, recessive)?
**A.** ~11 fold

**Q.** What about the “increased odds of abnormal LFTs” value ([3]; SLC22A5 rs274548, recessive) of the same compound?
**A.** ~15 fold

**Q.** What about the “increased odds of abnormal LFTs” value ([3]; SLC22A11 rs1783811, recessive) of the same compound?
**A.** ~6 fold

**Q.** And the “association of variant with CBD-associated sedation” value ([3]; TPMT rs2842934)?
**A.** decreased sedation

**Q.** And the “association of variant with CBD-associated sedation” value ([3]; UGT2A1 rs4148304 missense variant)?
**A.** decreased odds of sedation

**Q.** What about the “association of variant with CBD-associated diarrhoea” value ([3]; UGT2A1 rs11249454 intron variant) of the same compound?
**A.** decreased odds of diarrhoea

**Q.** And the “OR of CBD response, multivariable model” value ([4]; ABP1 (AOC1) rs12539)?
**A.** 5.67

**Q.** What about the “OR of CBD response, multivariable model” value ([4]; CHST11 rs903247) of the same compound?
**A.** 5.03

**Q.** What about the “OR of CBD response, multivariable model” value ([4]; DPYD rs1801265) of the same compound?
**A.** 4.50

**Q.** What about the “OR of CBD response, multivariable model” value ([4]; FMO2 rs7515157 (recessive)) of the same compound?
**A.** 0.06

**Q.** What about the “OR of CBD response, multivariable model” value ([4]; GSTM5 rs2479390) of the same compound?
**A.** 0.15

**Q.** What about the “OR of CBD response, multivariable model” value ([4]; GSTP1 rs1695 (recessive)) of the same compound?
**A.** 0.03

**Q.** And the “OR of CBD response, multivariable model” value ([4]; SLC7A7 rs1061040)?
**A.** 5.04

**Q.** And the “OR of CBD response, multivariable model” value ([4]; UGT2B4 rs1966151)?
**A.** 5.02

**Q.** What about the “OR of CBD response, multivariable model” value ([4]; predictor: CBD dose (mg/kg/day)) of the same compound?
**A.** 1.07

**Q.** And the “Adverse event Abnormal liver function tests, %” value ([5]; Non-Responders (N = 49))?
**A.** (4.1%)

**Q.** And the “Adverse event Decreased appetite, %” value ([5]; Non-Responders (N = 49))?
**A.** (6.1%)

**Q.** And the “Adverse event Depressed mood, %” value ([5]; Non-Responders (N = 49))?
**A.** (14.3%)

**Q.** What about the “Adverse event Diarrhoea, %” value ([5]; Non-Responders (N = 49)) of the same compound?
**A.** (44.9%)

**Q.** What about the “Adverse event Nausea/vomiting, %” value ([5]; Non-Responders (N = 49)) of the same compound?
**A.** (10.2%)

**Q.** And the “Adverse event Sedation, %” value ([5]; Non-Responders (N = 49))?
**A.** (44.9%)

**Q.** And the “Weight Change: 10-20% Weight loss, %” value ([5]; Non-Responders (N = 49))?
**A.** (24.5%)

**Q.** What about the “Weight Change: <10% Weight loss, %” value ([5]; Non-Responders (N = 49)) of the same compound?
**A.** (53.1%)

**Q.** What about the “Weight Change: >20% Weight loss, %” value ([5]; Non-Responders (N = 49)) of the same compound?
**A.** (6.1%)

**Q.** What about the “Weight Change: No Change or increase, %” value ([5]; Non-Responders (N = 49)) of the same compound?
**A.** (16.3%)

**Q.** What about the “Adverse event Abnormal liver function tests, %” value ([5]; Overall (N = 112)) of the same compound?
**A.** (10.7%)

**Q.** And the “Adverse event Decreased appetite, %” value ([5]; Overall (N = 112))?
**A.** (10.7%)

**Q.** And the “Adverse event Depressed mood, %” value ([5]; Overall (N = 112))?
**A.** (10.7%)

**Q.** What about the “Adverse event Diarrhoea, %” value ([5]; Overall (N = 112)) of the same compound?
**A.** (58.9%)

**Q.** What about the “Adverse event Nausea/vomiting, %” value ([5]; Overall (N = 112)) of the same compound?
**A.** (12.5%)

**Q.** What about the “Adverse event Sedation, %” value ([5]; Overall (N = 112)) of the same compound?
**A.** (34.8%)

**Q.** And the “Weight Change: 10-20% Weight loss, %” value ([5]; Overall (N = 112))?
**A.** (20.5%)

**Q.** What about the “Weight Change: <10% Weight loss, %” value ([5]; Overall (N = 112)) of the same compound?
**A.** (51.8%)

**Q.** What about the “Weight Change: >20% Weight loss, %” value ([5]; Overall (N = 112)) of the same compound?
**A.** (8.0%)

**Q.** What about the “Weight Change: No Change or increase, %” value ([5]; Overall (N = 112)) of the same compound?
**A.** (19.6%)

**Q.** What about the “Adverse event Abnormal liver function tests, %” value ([5]; Responders (N = 63)) of the same compound?
**A.** (15.9%)

**Q.** And the “Adverse event Decreased appetite, %” value ([5]; Responders (N = 63))?
**A.** (14.3%)

**Q.** What about the “Adverse event Depressed mood, %” value ([5]; Responders (N = 63)) of the same compound?
**A.** (7.9%)

**Q.** What about the “Adverse event Diarrhoea, %” value ([5]; Responders (N = 63)) of the same compound?
**A.** (69.8%)

**Q.** And the “Adverse event Nausea/vomiting, %” value ([5]; Responders (N = 63))?
**A.** (14.3%)

**Q.** What about the “Adverse event Sedation, %” value ([5]; Responders (N = 63)) of the same compound?
**A.** (27.0%)

**Q.** And the “Weight Change: 10-20% Weight loss, %” value ([5]; Responders (N = 63))?
**A.** (17.5%)

**Q.** And the “Weight Change: <10% Weight loss, %” value ([5]; Responders (N = 63))?
**A.** (50.8%)

**Q.** What about the “Weight Change: >20% Weight loss, %” value ([5]; Responders (N = 63)) of the same compound?
**A.** (9.5%)

**Q.** And the “Weight Change: No Change or increase, %” value ([5]; Responders (N = 63))?
**A.** (22.2%)
